Experiment [1] addresses T1, angiotensin II receptor (Bos taurus, UniProt P25104).
T1 construct: An A-II receptor membrane fraction was prepared from bovine adrenal cortex; from tissue; host or cells: bovine adrenal cortex membrane fraction
T1 sequence (P25104 1-359): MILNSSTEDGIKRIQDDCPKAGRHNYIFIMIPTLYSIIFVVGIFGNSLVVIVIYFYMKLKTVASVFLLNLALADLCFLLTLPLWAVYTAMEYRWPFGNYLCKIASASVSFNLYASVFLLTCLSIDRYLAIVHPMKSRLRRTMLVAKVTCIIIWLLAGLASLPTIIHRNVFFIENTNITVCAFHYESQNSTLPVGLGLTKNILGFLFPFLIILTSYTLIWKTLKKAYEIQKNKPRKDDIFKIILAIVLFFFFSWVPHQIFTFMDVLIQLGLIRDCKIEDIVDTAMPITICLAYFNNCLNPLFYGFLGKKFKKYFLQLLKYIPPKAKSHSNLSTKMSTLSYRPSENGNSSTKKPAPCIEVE
Description: Inhibitory Effect of Binding of Angiotensin-II to Angiotensin II Receptor (radioreceptor assay). Conditions: 125I-angiotensin II, bovine adrenal cortex membrane, room temperature, one hour; for inhibition at 1 µM: 10^-6 M; for inhibition at 0.1 µM: 10^-7 M. On the procedure: Inhibitory Effect of Binding of Angiotensin-II to Angiotensin II Receptor
An experiment of inhibition on the binding of angiotensin II (A-II) receptor was performed by modified the method of Douglas et al. [Endocrinology, 102, 685-696 (1978)]. An A-II receptor membrane fraction was prepared from bovine adrenal cortex.
The compound of the present invention (10^-6 M or 10^-7 M) and ^125 I-angiotensin II (^125 I-AII) (2.44 KBq/50 microliter) were added to the receptor membrane fraction, and the mixture was incubated at room temperature for one hour. The receptor-bound and free I-AII were separated through a filter (Whatman GF/B filter), and the radioactivity of ^125 I-AII bound to the receptor was determined.

In experiment [2] the test system is AII-induced Pressor Response. Description: Inhibitory Effect of the Compound of the Present Invention on AII-induced Pressor Response. Conditions: A-II 100 ng/kg i.v., male Jcl:SD rats. The experiment is classed as in vivo. An excerpt:
Inhibitory Effect of the Compound of the Present Invention on AII-induced Pressor Response
Jcl:SD rats (9 week old, male) were used. On the previous day of the experiment, rats were applied with cannulation into the femoral artery and vein under anesthesia with pentobarbital Na. These animals were fasted but allowed to access freely to drinking water until the experiment was started. Just on the day of conducting the experiment, the artery cannula was connected with a blood-pressure transducer, and the average blood pressure was recorded by polygraph. Before administration of the drug, the pressor action due to intravenous administration of A-II (100 ng/kg) as the control was determined. The drugs were orally administered, then, at each point of the determination, A-II was administered intravenously, and the pressor action was similarly determined. By comparing the pressor action before and after administration of the drug, the percent inhibition by the drug was evaluated.

The term inhibition denotes how much of the control response was suppressed. For `CCCN(Cc1ccc(-c2ccccc2-c2nsc(=O)[nH]2)cc1)c1ncccc1C(=O)O` [Example 4], in experiment [1], at 1 µM the inhibition was 61% and the inhibition at 0.1 µM was 20%. Further, the “Pressor Response [p.o.] (percent inhibition of A-II pressor action)” value in experiment [2] (1 mg/kg p.o.) is “+++ (+++ ≥ 70%)”.
On to `CCCN(Cc1ccc(-c2ccccc2-c2noc(=O)[nH]2)cc1)c1ncccc1C(=O)O` [Example 2], for which 1 µM produced 52% inhibition in experiment [1]. Further, the inhibition at 0.1 µM in experiment [1] worked out at 17%. Besides, the “Pressor Response [p.o.] (percent inhibition of A-II pressor action)” value in experiment [2] (0.3 mg/kg p.o.) and in experiment [2] (1 mg/kg p.o.) was “+++ (+++ ≥ 70%)” in each case.
In experiment [1], `CCCCN(Cc1ccc(-c2ccccc2-c2nc(=O)o[nH]2)cc1)c1ncccc1C(=O)O` [Example 6, 2-[N-butyl-N-[2'-(2,5-dihydro-5-oxo-1,2,4-oxadiazol-3-yl)biphenyl-4-yl]methylamino]pyridine-3-carboxylic acid] yielded an inhibition at 1 µM of 55% and an inhibition at 0.1 µM of 16%. Besides, the “Pressor Response [p.o.] (percent inhibition of A-II pressor action)” value in experiment [2] (1 mg/kg p.o.) was “+++ (+++ ≥ 70%)”.

These data come from patent publication US5500427A, “Cyclic compounds and their use” (Takeda Chemical Industries, Ltd., priority 1992, dated 1996).
